Source: patent US8168795B2, “Selective sphingosine-1-phosphate receptor antagonists” (Allergan, Inc., priority 2009, dated 2012)
pIC50: −log10 of the molar value.

Target: S1P3 receptor (Homo sapiens, UniProt Q99500)
Assay: GTP γ35S binding assay, antagonist mode
Format: biochemical
Conditions: for pIC50: antagonist assay, reaction mixture contained 10 nM S1P, membranes, read-out: S1P3 GTPγ^35S IC50
Experimental: B. Novel compounds were synthesized and tested for S1P3 activity using the GTP γ^35S binding assay. GTP γ^35S binding was measured in the medium containing (mM) HEPES 25, pH 7.4, MgCl2 10, NaCl 100, dithiothreitol 0.5, digitonin 0.003%, 0.2 nM GTP γ^35S, and 5 μg membrane protein in a volume of 150 μl. Test compounds were included in the concentration range from 0.08 to 5,000 nM unless indicated otherwise. Membranes were incubated with 100 μM 5′-adenylylimmidodiphosphate for 30 min, and subsequently with 10 μM GDP for 10 min on ice. Drug solutions and membrane were mixed, and then reactions were initiated by adding GTP γ^35S and continued for 30 min at 25° C. Reaction mixtures were filtered over Whatman GF/B filters under vacuum, and washed three times with 3 mL of ice-cold buffer (HEPES 25, pH7.4, MgCl2 10 and NaCl 100). Filters were dried and mixed with scintillant, and counted for ^35S activity using a β-counter. Agonist-induced GTP γ^35S binding was obtained by subtracting that in the absence of agonist. Binding data were analyzed using a non-linear regression method. In case of antagonist assay, the reaction mixture contained 10 nM S1P in the presence of test antagonist at concentrations ranging from 0.08 to 5000 nM.

Sequence of S1P3 receptor (Q99500 whole entry): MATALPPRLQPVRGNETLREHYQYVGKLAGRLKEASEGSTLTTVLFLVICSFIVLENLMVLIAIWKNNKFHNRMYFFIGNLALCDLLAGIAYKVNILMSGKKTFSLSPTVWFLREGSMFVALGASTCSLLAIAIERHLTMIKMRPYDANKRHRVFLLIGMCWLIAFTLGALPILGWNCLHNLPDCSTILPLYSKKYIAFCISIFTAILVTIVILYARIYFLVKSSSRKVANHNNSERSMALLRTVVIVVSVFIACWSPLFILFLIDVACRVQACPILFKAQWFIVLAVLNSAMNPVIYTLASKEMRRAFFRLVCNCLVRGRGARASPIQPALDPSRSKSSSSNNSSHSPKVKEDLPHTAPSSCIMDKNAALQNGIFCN

| Compound | pIC50 | activity of separated enantiomer (enantiomers of Compound-28 separated by chiral HPLC, assay not stated) |
| --- | --- | --- |
| O=C(NC(Nc1cnc(Cl)nc1)C(F)(F)C(F)(F)C(F)(F)C(F)(F)C(F)(F)C(F)F)c1ccc(Br)cn1 (stereo not drawn) [Compound-37, 5-Bromo-N-(1-(2-chloropyrimidin-5-ylamino)-2,2,3,3,4,4,5,5,6,6,7,7-dodecafluoroheptyl)picolinamide] | 7.23 |  |
| O=C(NC(Nc1cnc(Cl)nc1)C(F)(F)C(F)(F)F)c1ccc(Br)cn1 (stereo not drawn) [Compound-35, 5-Bromo-N-(1-(2-chloropyrimidin-5-ylamino)-2,2,3,3,3-pentafluoropropyl)picolinamide] | 8.70 |  |
| O=C(NC(Nc1ccc(Cl)cc1)C(F)(F)C(F)(F)F)c1ccc(Br)cn1 (single isomer, unassigned; (-)) [Compound-32, (−)-5-bromo-N-(1-(4-chlorophenylamino)-2,2,3,3,3-pentafluoropropyl)picolinamide] | 8.89 | active enantiomer |
| O=C(NC(Nc1ccc(Cl)cc1)C(F)(F)C(F)(F)C(F)(F)C(F)(F)F)c1ccc(Br)cn1 (stereo not drawn) [Compound-29] | 8.26 |  |
| CC1CCC(NC(NC(=O)c2ccc(Br)cc2)C(Cl)(Cl)Cl)CC1 (single isomer, unassigned) [Compound-49, 4-bromo-N-(2,2,2-trichloro-1-(4-methylcyclohexylamino)ethyl)benzamide] | 6.17 |  |
| O=C(NC(Nc1ccc(Cl)cc1)C(=O)c1cccc2ccccc12)c1ccc(Br)cn1 (stereo not drawn) [Compound-1, 5-bromo-N-(1-(4-chlorophenylamino)-2-(naphthalen-1-yl)-2-oxoethyl)picolinamide] | 8.00 |  |
| O=C(NC(Nc1ccc(Cl)cc1)c1cc2ccccc2o1)c1ccc(Br)cn1 (stereo not drawn) [Compound-10, N-(benzofuran-2-yl(4-chlorophenylamino)methyl)-5-bromopicolinamide] | 8.33 |  |
| COc1cccc(C(=O)C(NC(=O)c2ccc(Br)cn2)Nc2ccc(Cl)cc2)c1 (stereo not drawn) [Compound-3, 5-bromo-N-(1-(4-chlorophenylamino)-2-(3-methoxyphenyl)-2-oxoethyl)picolinamide] | 8.28 |  |
| O=C(NC(Nc1ccc(Cl)cc1)C(=O)c1ccc2ccccc2c1)c1ccc(Br)cn1 (stereo not drawn) [Compound-2, 5-bromo-N-(1-(4-chlorophenylamino)-2-(naphthalen-2-yl)-2-oxoethyl)picolinamide] | 7.51 |  |
| CCC(Cl)(Cl)C(NC(=O)c1ccc(Br)cn1)Nc1ccc(Cl)cc1 (stereo not drawn) [Compound-27, 5-Bromo-N-(2,2-dichloro-1-(4-chlorophenylamino)butyl)picolinamide] | 7.25 |  |
| O=C(NC(Nc1ccc(Cl)cc1)c1ccc(Cl)cc1)c1ccc(Br)cn1 (stereo not drawn) [Compound-7, 5-Bromo-N-((4-chlorophenyl)(4-chlorophenylamino)methyl)picolinamide] | 6.94 |  |
